The source of these data is US11203591B2, “Substituted 6-azabenzimidazole compounds” (Gilead Sciences, Inc., priority 2018, dated 2021).

Chain of human HPK1 (MAP4K1) (Q92918 17-274): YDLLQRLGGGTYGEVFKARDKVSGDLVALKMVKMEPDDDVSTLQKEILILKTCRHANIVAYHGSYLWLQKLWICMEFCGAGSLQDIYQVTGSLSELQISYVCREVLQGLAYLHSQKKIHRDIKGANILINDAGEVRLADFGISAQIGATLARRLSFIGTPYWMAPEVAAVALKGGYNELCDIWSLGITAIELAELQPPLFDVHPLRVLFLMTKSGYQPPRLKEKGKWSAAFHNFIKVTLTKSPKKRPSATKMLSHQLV

The first experiment concerns the target human HPK1 (MAP4K1) (Homo sapiens (Human), UniProt Q92918). Nature of the experiment: HPK1 IC50 Assay (TR-FRET peptide phosphorylation). Type of experiment: biochemical. The settings on record: 0.15 nM HPK1, 10 μM ATP, 1 μM STK S1 peptide substrate; geometric mean. The essentials: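 Readout: TR-FRET (665 nm/620 nm) after EDTA stop, detecting STK S1 peptide (1 μM) phosphorylation by 0.15 nM HPK1 kinase domain, ATP-pre-activated, at 10 μM ATP over 3 h, 25° C, pH 7.0. IC50s from four-parameter variable-slope fits, normalized to staurosporine and DMSO, averaged geometrically.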
For orientation: IC50 means the midpoint of a concentration-inhibition curve. As to `Cc1cc(F)c(Nc2nc(-c3ccc4c(c3)N([C@H]3C[C@@](C)(N5CCCCC5)C3)C(=O)C4(C)C)cc3ncn(C(C)C)c23)cc1C(=O)NCC(F)F` [Example 266, N-(2,2-difluoroethyl)-5-((6-(3,3-dimethyl-1-((1s,3s)-3-methyl-3-(piperidin-1-yl)cyclobutyl)-2-oxoindolin-6-yl)-3-isopropyl-3H-imidazo[4,5-c]pyridin-4-yl)amino)-4-fluoro-2-methylbenzamide], the midpoint of inhibition, the IC50, lay at 0.06 nM.

Still in this experiment, the particulars now being: recombinant HPK1 kinase domain 0.15 nM, 10 μM ATP, 1 μM STK S1 peptide; geometric mean of multiple experiments.
Regarding `Cc1c(C(=O)NC2(C(F)F)CC2)cc(Nc2nc(-c3ccc4c(c3)N([C@H]3C[C@@H](N5C[C@H]6CC[C@@H]5C6)C3)C(=O)C4(C)C)cc3ncn(C(C)C)c23)c(F)c1F` [Example 145, 5-((6-(1-((1S,3s)-3-((1R,4S)-2-azabicyclo[2.2.1]heptan-2-yl)cyclobutyl)-3,3-dimethyl-2-oxoindolin-6-yl)-3-isopropyl-3H-imidazo[4,5-c]pyridin-4-yl)amino)-N-(1-(difluoromethyl)cyclopropyl)-3,4-difluoro-2-methylbenzamide], the IC50 amounted to 0.07 nM.
Turning to `CC(C)n1cnc2cc(-c3cnc4c(c3)N([C@H]3C[C@@](C)(N5CCC6CC6C5)C3)C(=O)C4(C)C)nc(Nc3cc(C(=O)NC4(C(F)F)CC4)c(Cl)c(F)c3F)c21` (some centres unmarked) [Example 225, 5-((6-(1-((1s,3s)-3-(3-Azabicyclo[4.1.0]heptan-3-yl)-3-methylcyclobutyl)-3,3-dimethyl-2-oxo-2,3-dihydro-1H-pyrrolo[3,2-b]pyridin-6-yl)-3-isopropyl-3H-imidazo[4,5-c]pyridin-4-yl)amino)-2-chloro-N-(1-(difluoromethyl)cyclopropyl)-3,4-difluorobenzamide], the IC50 was determined as 0.08 nM.
As to `CNC(=O)c1cc(Nc2nc(-c3ccc4c(c3)N(C3CC(N5CCC[C@H](C(F)F)C5)C3)C(=O)C4(C)C)cc3ncn(C(C)C)c23)ccc1C` (some centres unmarked) [Example 105A, 5-((6-(1-((1s,3s)-3-(3-(difluoromethyl)piperidin-1-yl)cyclobutyl)-3,3-dimethyl-2-oxoindolin-6-yl)-3-isopropyl-3H-imidazo[4,5-c]pyridin-4-yl)amino)-N,2-dimethylbenzamide], the IC50 was 0.2 nM.
Regarding `CNC(=O)c1cc(Nc2nc(-c3ccc4c(c3)N([C@H]3C[C@@H](N5CCCCC5)C3)C(=O)C43CCN(C(C)=O)CC3)cc3ncn(C4CC4)c23)c(F)cc1Cl` [Example 93], the IC50 came out at 0.2 nM.
On to `CCNC(=O)c1cc(Nc2nc(-c3ccc4c(c3)N([C@H]3C[C@@H](N5CCCCC5)C3)C(=O)C43CCN(C(=O)CC)CC3)cc3ncn(C(C)C)c23)c(F)cc1C` [Example 60], for which the IC50 amounted to 0.2 nM.
For the molecule `CNC(=O)c1cc(Nc2nc(-c3ccc4c(c3)N([C@H]3C[C@@H](N5C[C@H]6CC[C@@H]5C6)C3)C(=O)C43CCN(C(C)=O)CC3)cc3ncn(C4CC4)c23)ccc1C` [Example 44], the IC50 worked out at 0.2 nM.
Take `CC(=O)N1CCC2(CC1)C(=O)N([C@H]1C[C@@H](N3CCCCC3)C1)c1cc(-c3cc4ncn(C(C)C)c4c(Nc4cc(C(=O)NC5CC5)c(C)cc4F)n3)ccc12` [Example 91]: the IC50 came to 0.1 nM.
`CNC(=O)c1cc(Nc2nc(-c3ccc4c(c3)N([C@H]3C[C@@H](NC(C)C)C3)C(=O)C4(C)C)cc3ncn(C(C)C)c23)ccc1C` [Example 11]: the IC50 came to 0.1 nM.
In the case of `CC[C@]1(N2CCCCC2)C[C@@H](N2C(=O)C(C)(C)c3ncc(-c4cc5ncn(C(C)C)c5c(Nc5cc(C(=O)NC6(C(F)F)CC6)c(C)cc5F)n4)cc32)C1` [Example 213, N-(1-(Difluoromethyl)cyclopropyl)-5-((6-(1-((1r,3s)-3-ethyl-3-(piperidin-1-yl)cyclobutyl)-3,3-dimethyl-2-oxo-2,3-dihydro-1H-pyrrolo[3,2-b]pyridin-6-yl)-3-isopropyl-3H-imidazo[4,5-c]pyridin-4-yl)amino)-4-fluoro-2-methylbenzamide], the IC50 is 0.3 nM.
As for `CNC(=O)c1cc(Nc2nc(-c3ccc4c(c3)N([C@H]3C[C@@H](N5CCCCC5)C3)C(=O)C4(C)C)cc3ncn(C4CC4)c23)ccc1Cl` [Example 40], the IC50 came out at 0.1 nM.
Same read-out and setting: in the case of `Cc1ccc(Nc2nc(-c3ccc4c(c3)N([C@H]3C[C@@H](N5CCCCC5)C3)C(=O)C4(C)C)cc3ncn(C4CC4)c23)cc1C(N)=O` [Example 112] it was 0.09 nM; in that of `Cc1c(C(=O)NC2(C(F)F)CC2)cc(Nc2nc(-c3cnc4c(c3)N([C@H]3C[C@@](C)(N5CC6CCC5CO6)C3)C(=O)C4(C)C)cc3ncn(C(C)C)c23)c(F)c1F` (some centres unmarked) [Example 224, 5-((6-(1-((1s,3s)-3-(2-oxa-5-azabicyclo[2.2.2]octan-5-yl)-3-methylcyclobutyl)-3,3-dimethyl-2-oxo-2,3-dihydro-1H-pyrrolo[3,2-b]pyridin-6-yl)-3-isopropyl-3H-imidazo[4,5-c]pyridin-4-yl)amino)-N-(1-(difluoromethyl)cyclopropyl)-3,4-difluoro-2-methylbenzamide], 0.06 nM; in that of `CC(C)n1cnc2cc(-c3cnc4c(c3)N([C@H]3C[C@@](C)(N5CCCCC5)C3)C(=O)C4(C)C)nc(Nc3cc(C(=O)NC4CC4)c(Cl)c(F)c3F)c21` [Example 265, 2-chloro-N-cyclopropyl-5-((6-(3,3-dimethyl-1-((1s,3s)-3-methyl-3-(piperidin-1-yl)cyclobutyl)-2-oxo-2,3-dihydro-1H-pyrrolo[3,2-b]pyridin-6-yl)-3-isopropyl-3H-imidazo[4,5-c]pyridin-4-yl)amino)-3,4-difluorobenzamide], 0.06 nM.
Consider `CC(C)n1cnc2cc(-c3cnc4c(c3)N([C@H]3C[C@@](C)(N5CCCCC5)C3)C(=O)C4(C)C)nc(Nc3cc(C(=O)NCC(F)F)c(Cl)c(F)c3F)c21` [Example 250, 2-chloro-N-(2,2-difluoroethyl)-5-((6-(3,3-dimethyl-1-((1s,3s)-3-methyl-3-(piperidin-1-yl)cyclobutyl)-2-oxo-2,3-dihydro-1H-pyrrolo[3,2-b]pyridin-6-yl)-3-isopropyl-3H-imidazo[4,5-c]pyridin-4-yl)amino)-3,4-difluorobenzamide], for which the IC50 came to 0.1 nM.
In the case of `Cc1ccc(Nc2nc(-c3ccc4c(c3)N([C@H]3C[C@@H](N5CCCCC5)C3)C(=O)C4(C)C)cc3ncn(C(C)C)c23)cc1C(=O)NCC(F)F` [Example 20], the half-maximal inhibitory concentration (IC50) was determined as 0.05 nM.
On to `CNC(=O)c1cc(Nc2nc(-c3ccc4c(c3)N([C@H]3C[C@@H](N5CCCCC5)C3)C(=O)C43CCN(C(=O)C45CC(F)(C4)C5)CC3)cc3ncn(C4CC4)c23)ccc1C` [Example 154], for which the IC50 is 0.06 nM.
`CNC(=O)c1cc(Nc2nc(-c3ccc4c(c3)N([C@H]3C[C@@H](N5CC[C@@H](F)C5)C3)C(=O)C4(C)C)cc3ncn(C(C)C)c23)ccc1C` [Example 4]: the IC50 came out at 0.1 nM.
As to `CNC(=O)c1cc(Nc2nc(-c3ccc4c(c3)N([C@H]3C[C@@H](N5CCCCC5)C3)C(=O)C43CCN(C(C)=O)CC3)cc3ncn(C4CC4)c23)ccc1Cl` [Example 47], the IC50 was determined as 0.2 nM.
Turning to `Cc1ccc(Nc2nc(-c3ccc4c(c3)N([C@H]3C[C@@H](N5CCCCC5)C3)C(=O)C43CCN(C4COC4)CC3)cc3ncn(C(C)C)c23)cc1C(=O)NC(C)C` [Example 73], the IC50 was determined as 0.1 nM.
On to `CC(C)n1cnc2cc(-c3cnc4c(c3)N([C@H]3C[C@@](C)(N5CCCCCC5)C3)C(=O)C4(C)C)nc(Nc3cc(C(=O)NC4(C(F)F)CC4)c(Cl)c(F)c3F)c21` [Example 226, 5-((6-(1-((1s,3s)-3-(Azepan-1-yl)-3-methylcyclobutyl)-3,3-dimethyl-2-oxo-2,3-dihydro-1H-pyrrolo[3,2-b]pyridin-6-yl)-3-isopropyl-3H-imidazo[4,5-c]pyridin-4-yl)amino)-2-chloro-N-(1-(difluoromethyl)cyclopropyl)-3,4-difluorobenzamide], for which the IC50 amounted to 0.1 nM.
On to `CNC(=O)c1cc(Nc2nc(-c3ccc4c(c3)N([C@H]3C[C@@H](N5CCCCC5)C3)C(=O)C43CCN(C(=O)C4(O)CC4)CC3)cc3ncn(C4CC4)c23)ccc1C` [Example 84], for which the IC50 was determined as 0.2 nM.
`CNC(=O)c1cc(Nc2nc(-c3ccc4c(c3)N([C@H]3C[C@@H](N5C6COCC5C6)C3)C(=O)C4(C)C)cc3ncn(C(C)C)c23)ccc1C` [Example 6]: the IC50 is 0.1 nM.
`CNC(=O)c1cc(Nc2nc(-c3ccc4c(c3)N([C@H]3C[C@@H](N5CCCCC5)C3)C(=O)C43CCN(C4COC4)CC3)cc3ncn(C(C)C)c23)c(F)cc1C` [Example 68]: the IC50 came out at 0.2 nM.
As to `Cc1cc(F)c(Nc2nc(-c3ccc4c(c3)N([C@H]3C[C@@H](N5CCC[C@@H](F)C5)C3)C(=O)C43CCN(C4COC4)CC3)cc3ncn(C(C)C)c23)cc1C(=O)NC(C)C` [Example 172], the half-inhibitory concentration (IC50) was determined as 0.3 nM.
As to `Cc1c(C(=O)NC2CC2)cc(Nc2nc(-c3cnc4c(c3)N([C@H]3C[C@@](C)(N5CCCCC5)C3)C(=O)C4(C)C)cc3ncn(C(C)C)c23)c(F)c1F` [Example 221, N-Cyclopropyl-5-((6-(3,3-dimethyl-1-((1s,3s)-3-methyl-3-(piperidin-1-yl)cyclobutyl)-2-oxo-2,3-dihydro-1H-pyrrolo[3,2-b]pyridin-6-yl)-3-isopropyl-3H-imidazo[4,5-c]pyridin-4-yl)amino)-3,4-difluoro-2-methylbenzamide], the IC50 was found to be 0.07 nM.
In the case of `Cc1c(C(=O)NC(C)C)cc(Nc2nc(-c3cnc4c(c3)N([C@H]3C[C@@](C)(N5CCCCC5)C3)C(=O)C4(C)C)cc3ncn(C(C)C)c23)c(F)c1F` [Example 220, 5-((6-(3,3-Dimethyl-1-((1s,3s)-3-methyl-3-(piperidin-1-yl)cyclobutyl)-2-oxo-2,3-dihydro-1H-pyrrolo[3,2-b]pyridin-6-yl)-3-isopropyl-3H-imidazo[4,5-c]pyridin-4-yl)amino)-3,4-difluoro-N-isopropyl-2-methylbenzamide], the IC50 turned out to be 0.09 nM.
Still for that read-out and setting: with `CNC(=O)c1cc(Oc2nc(-c3ccc4c(c3)N([C@H]3C[C@@H](N5CCCCC5)C3)C(=O)C4(C)C)cc3ncn(C4CC4)c23)ccc1C` [Example 34] the figure was 0.6 nM; with `Cc1ccc(Nc2nc(-c3ccc4c(c3)N([C@H]3C[C@@H](N5CCCCC5)C3)C(=O)C43CCOCC3)cc3ncn(C(C)C)c23)cc1C(=O)NC1CCC1` [Example 23], 0.2 nM.
